Legend:
Acanthamoeba = conditions: cited from earlier work
cysts of A. castellani = test: Susceptibility test for Acanthamoeba cysts (viable cells on non-nutrient agar plates after soaking in contact lens solution); type: cell-based, A. castellanii; design: key: +: viable cells; −: no viable cells; conditions: after 8 hours soaking; 10^3 cysts; plates incubated at 30° C. for 14 days; Miltefosine alone tested at 80 μM
Procedure: The activity of various multi-purpose contact lens solutions (for cleaning, rinsing, storing and disinfecting a contact lens while the lens is not worn) was tested against cysts of A. castellani.
Contact lens disinfection solutions tested (Table 1) were purchased from local retail stores. In case of the H2O2 based systems, neutralization of the 3% hydrogen peroxide is achieved within 6 hours by a catalytic platinum disk which is located in the contact lens storage case according to the manufacturer's instructions. Miltefosine was dissolved in 5% Ethanol (2 mM stock solution) and tested at 80 μM in Acanthamoeba medium (PYG) or in contact lens disinfection medium.
A. castellanii, was isolated from a patient suffering from a severe Acanthamoeba keratitis. Isolation was achieved by inoculating corneal epithelium onto non-nutrient agar plates covered with a 48-h-old culture of Escherichia coli. The isolate was cloned by transferring a single cyst onto a fresh plate with a micromanipulator. Axenisation was achieved by harvesting cysts from parallel cultures and incubating them in 3% HCl overnight in order to eliminate coexisting bacteria. […] The cysts were harvested by centrifugation (500 g/7 minutes), resuspended in sterile 0.9% NaCl and counted in a BurkerTurk haemocytometer. […]

SMILES	Effectiveness against Acanthamoeba among contact lens disinfectants (Acanthamoeba)	Viable Acanthamoeba cells after disinfection with commercially available disinfectants (cysts of A. castellani)
[H]/N=C(\N/C(=N/[H])NCCCCCCNC(=N)NC(=N)Nc1ccc(Cl)cc1)Nc1ccc(Cl)cc1 [chlorhexidine]	most effective	
CCCCCCCCCCCCCCCCOP(=O)([O-])OCC[N+](C)(C)C [Miltefosine, 1-hexadecylphosphorylcholine]		−
